Assay results reported in patent US20140135319A1, “6-SUBSTITUTED IMIDAZOPYRAZINES FOR USE AS MPS-1 AND TKK INHIBITORS IN THE TREATMENT OF HYPERPROLIFERATIVE DISORDERS” (BAYER INTELLECTUAL PROPERTY GMBH, priority 2010, published 2014).
pIC50: −log10 of the molar value.

target: T1, human kinase Mps-1 (Homo sapiens, UniProt P33981); assay: Mps-1 kinase assay (TR-FRET); type: biochemical; settings: GST-tagged human full length recombinant Mps-1; 10 μM ATP; 1 μM peptide substrate; 60 min at 22° C.
T1 construct: N-terminally GST-tagged human full length recombinant Mps-1 kinase; GST (N); purchased Invitrogen, Karslruhe, Germany PV4071
T1 sequence (P33981 1-857): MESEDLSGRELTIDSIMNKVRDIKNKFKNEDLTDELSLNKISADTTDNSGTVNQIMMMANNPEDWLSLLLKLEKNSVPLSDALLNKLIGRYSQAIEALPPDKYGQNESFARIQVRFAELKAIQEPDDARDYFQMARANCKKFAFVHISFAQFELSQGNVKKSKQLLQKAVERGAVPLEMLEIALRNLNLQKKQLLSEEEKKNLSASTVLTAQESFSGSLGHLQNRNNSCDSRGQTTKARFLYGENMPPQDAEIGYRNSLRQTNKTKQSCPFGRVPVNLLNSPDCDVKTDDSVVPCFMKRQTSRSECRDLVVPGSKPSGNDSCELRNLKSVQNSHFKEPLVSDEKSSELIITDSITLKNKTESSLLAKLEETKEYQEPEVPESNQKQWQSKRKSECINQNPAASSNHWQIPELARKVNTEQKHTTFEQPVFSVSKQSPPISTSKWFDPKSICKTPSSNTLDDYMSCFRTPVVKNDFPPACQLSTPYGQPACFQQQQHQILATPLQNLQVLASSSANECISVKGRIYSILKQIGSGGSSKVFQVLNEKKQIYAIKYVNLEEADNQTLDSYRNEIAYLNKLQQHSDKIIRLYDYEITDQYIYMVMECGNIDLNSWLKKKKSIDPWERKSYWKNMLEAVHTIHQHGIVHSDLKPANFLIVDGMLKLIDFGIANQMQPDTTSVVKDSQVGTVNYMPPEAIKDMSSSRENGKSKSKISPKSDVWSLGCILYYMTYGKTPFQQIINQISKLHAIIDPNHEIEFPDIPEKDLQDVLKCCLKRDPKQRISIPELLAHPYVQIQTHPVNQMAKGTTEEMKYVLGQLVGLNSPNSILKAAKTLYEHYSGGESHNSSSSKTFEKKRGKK
Method: The human kinase Mps-1 phosphorylates a biotinylated substrate peptide. Detection of the phosphorylated product is achieved by time-resolved fluorescence resonance energy transfer (TR-FRET) from Europium-labelled anti-phospho-Serine/Threonine antibody as donor to streptavidin labelled with cross-linked allophycocyanin (SA-XLent) as acceptor. Compounds are tested for their inhibition of the kinase activity.
N-terminally GST-tagged human full length recombinant Mps-1 kinase (purchased from Invitrogen, Karslruhe, Germany, cat. no PV4071) was used. As substrate for the kinase reaction a biotinylated peptide of the amino-acid sequence […] (C-terminus in amide form, purchased from Biosynthan GmbH, Berlin) was used.
The concentration of Mps-1 in the assay was adjusted to the activity of the enzyme lot and was chosen appropriate to have the assay in the linear range, typical enzyme concentrations were in the range of about 1 nM (final conc. in the 5 μl assay volume).
The resulting mixture was incubated 1 h at 22° C. to allow the binding of the phosphorylated peptide to the anti-phospho(Ser/Thr)-Europium-antibody. Subsequently the amount of phosphorylated substrate was evaluated by measurement of the resonance energy transfer from the Europium-labelled anti-phospho(Ser/Thr) antibody to the Streptavidin-XLent. Therefore, the fluorescence emissions at 620 nm and 665 nm after excitation at 350 nm was measured in a Viewlux TR-FRET reader (PerkinElmer LAS, Rodgau-Jügesheim, Germany). The “blank-corrected normalized ratio” (a Viewlux specific readout, similar to the traditional ratio of the emissions at 665 nm and at 622 nm, in which blank and Eu-donor crosstalk are subtracted from the 665 nm signal before the ratio is calculated) was taken as the measure for the amount of phosphorylated substrate.

Row | pIC50 | SMILES
1 | 7.67 | CS(=O)(=O)CCCNc1nc(-c2ccncc2)cn2c(-c3ccc(C(=O)NC4CC4)cc3)cnc12 [Example 3-32, N-cyclopropyl-4-[8-{[3-(methylsulfonyl)propyl]amino}-6-(pyridin-4-yl)imidazo[1,2-a]pyrazin-3-yl]benzamide]
2 | 6.51 | COc1cc(C(=O)NC2CC2)ccc1-c1cnc2c(NCCCN)nc(-c3ccncc3)cn12 [Example 1-100, 4-{8-[(3-Aminopropyl)amino]-6-(pyridin-4-yl)imidazo [1,2-a]pyrazin-3-yl}-N-cyclopropyl-3-methoxy-benzamide]
3 | 5.87 | Cn1nccc1-c1cn2c(-c3ccc(C(=O)NC4CC4)c(Cl)c3)cnc2c(NCCCN)n1 [Example 1-98, 4-{8-[(3-Aminopropyl)amino]-6-(1-methyl-1H-pyrazol-5-yl)imidazo[1,2-a]pyrazin-3-yl}-2-chloro-N-cyclopropylbenzamide]
4 | 8.00 | CC(C)CNc1nc(-c2ccccc2)cn2c(-c3ccc(C(=O)NC4CC4F)cc3)cnc12 (stereo not shown) [Example 2-2, N-(2-fluorocyclopropyl)-4-{8-[(2-methylpropyl)amino]-6-phenylimidazo [1,2-a]pyrazin-3-yl} benzamide]
5 | 7.02 | O=C(NC1CC1)c1ccc(-c2cnc3c(NCC4CCCO4)nc(-c4ccn[nH]4)cn23)cc1F (stereo not shown) [Example 1-63, N-cyclopropyl-2-fluoro-4-{6-(1H-pyrazol-5-yl)-8-[(tetrahydrofuran-2-ylmethyl)amino]imidazo [1,2-a]pyrazin-3-yl} benzamide]
6 | 7.52 | CC(C)(O)CNc1nc(C2=CCOCC2)cn2c(-c3ccc(C(=O)NC4CC4)c(F)c3)cnc12 [Example 1-60, N-cyclopropyl-4-{6-(3,6-dihydro-2H-pyran-4-yl)-8-[(2-hydroxy-2-methylpropyl)amino]imidazo[1,2-a]pyrazin-3-yl}-2-fluorobenzamide]
7 | 8.43 | CC(C)CNc1nc(-c2ccncc2)cn2c(-c3ccc(C(=O)NC4CC4)c(F)c3)cnc12 [Example 1-49, N-cyclopropyl-2-fluoro-4-{8-[(2-methylpropyl)amino]-6-(pyridin-4-yl)imidazo[1,2-a]pyrazin-3-yl}benzamide]
8 | 8.47 | CC(C)CNc1nc(-c2ccsc2)cn2c(-c3ccc(C(=O)NC4CC4)cc3)cnc12 [Example 1-10, N-cyclopropyl-4-{8-[(2-methylpropyl)amino]-6-(thiophen-3-yl)imidazo [1,2-a]pyrazin-3-yl} benzamide]
9 | 8.34 | NC/C=C\CCNc1nc(-c2ccccc2)cn2c(-c3ccc(C(=O)NC4CC4)cc3)cnc12 [Example 4-3, 4-(8-{[(3Z)-5-aminopent-3-en-1-yl]amino}-6-phenylimidazo[1,2-a]pyrazin-3-yl)-N-cyclopropylbenzamide]
10 | 7.98 | Cc1cc(-c2cnc3c(NCC4CC(F)(F)C4)nc(C4=CCOCC4)cn23)ccc1C(=O)NC1CC1 [Example 6-17, N-cyclopropyl-4-[8-{[(3,3-difluoro-cyclobutyl)methyl]amino}-6-(3,6-dihydro-2H-pyran-4-yl)imidazo [1,2-a]pyrazin-3-yl]-2-methylbenzamide]
11 | 8.64 | O=C(NC1CC1)c1ccc(-c2cnc3c(NCc4ccccc4)nc(-c4ccncc4)cn23)cc1 [Example 3-12, 4-[8-(benzylamino)-6-(pyridin-4-yl)imidazo [1,2-a]pyrazin-3-yl]-N-cyclopropylbenzamide]
12 | 8.34 | CC(C)CNc1nc(-c2cnn(C)c2)cn2c(-c3ccc(C(=O)NC4CC4)cc3)cnc12 [Example 1-8, N-cyclopropyl-4-{8-[(2-methylpropyl)amino]-6-(1-methyl-1H-pyrazol-4-yl)imidazo[1,2-a]pyrazin-3-yl}benzamide]
13 | 8.08 | CC(C)CNc1nc(-c2ccn[nH]2)cn2c(-c3ccc(C(=O)NC4CC4)c(F)c3)cnc12 [Example 1-51, N-cyclopropyl-2-fluoro-4-{8-[(2-methylpropyl)amino]-6-(1H-pyrazol-5-yl)imidazo[1,2-a]pyrazin-3-yl}benzamide]
14 | 8.09 | O=C(NC1CC1)c1ccc(-c2cnc3c(NCCC(F)(F)F)nc(-c4ccoc4)cn23)cc1Cl [Example 1-37, 2-chloro-N-cyclopropyl-4-{6-(furan-3-yl)-8-[(3,3,3-trifluoropropyl)amino]imidazo[1,2-a]pyrazin-3-yl}benzamide]
15 | 8.57 | O=C(NC1CC1)c1ccc(-c2cnc3c(NCc4c(F)cccc4F)nc(-c4ccncc4)cn23)cc1 [Example 3-15, N-cyclopropyl-4-{8-[(2,6-difluorobenzyl)amino]-6-(pyridin-4-yl)imidazo [1,2-a]pyrazin-3-yl} benzamide]
16 | 7.85 | O=C(NC1CC1)c1ccc(-c2cnc3c(NCCC(F)(F)F)nc(-c4ccn[nH]4)cn23)cc1Cl [Example 1-38, 2-chloro-N-cyclopropyl-4-{6-(1H-pyrazol-5-yl)-8-[(3,3,3-trifluoropropyl)amino]imidazo[1,2-a]pyrazin-3-yl}benzamide]
17 | 8.42 | Cn1nccc1CNc1nc(-c2cccc(CC(N)=O)c2)cn2c(-c3ccc(C(=O)NC4CC4)cc3)cnc12 [Example 1-92, 4-(6-[3-(2-Amino-2-oxo-ethyl)phenyl]-8-{[(1-methyl-1H-pyrazol-5-yl)methyl]amino}imidazo[1,2-a]pyrazin-3-yl)-N-cyclopropyl benzamide]
18 | 6.53 | Cc1cc(-c2cnc3c(NCCC4CCN(C)CC4)nc(C4=CCOCC4)cn23)ccc1C(=O)NC1CC1 [Example 6-14, N-cyclopropyl-4-[6-(3,6-dihydro-2H-pyran-4-yl)-8-{[2-(1-methyl-piperidin-4-yl)ethyl]amino}imidazo[1,2-a]pyrazin-3-yl]-2-methylbenzamide]
19 | 8.05 | CC(=O)Nc1ccc(-c2cn3c(-c4ccc(C(=O)NC5CC5)cc4)cnc3c(NCC(C)C)n2)cn1 [Example 1-25, 4-{6-[6-(acetylamino)pyridin-3-yl]-8-[(2-methyl-propyl)amino]imidazo [1,2-a]pyrazin-3-yl}-N-cyclopropylbenzamide]
20 | 7.69 | CC(C)CNc1nc(C(=O)N2CCCCC2)cn2c(-c3ccc(C(=O)NC4CC4)cc3)cnc12 [Example 8-3, N-cyclopropyl-4-{8-[(2-methylpropyl)amino]-6-(piperidin-1-ylcarbonyl)imidazo[1,2-a]pyrazin-3-yl}benzamide]
21 | 7.59 | Cn1nccc1CNc1nc(-c2ccoc2)cn2c(-c3ccc(C(=O)NC4CC4)c(Cl)c3)cnc12 [Example 1-47, 2-chloro-N-cyclopropyl-4-[6-(furan-3-yl)-8-{[(1-methyl-1H-pyrazol-5-yl)methyl]amino}imidazo [1,2-a]pyrazin-3-yl] benzamide]
22 | 8.13 | C#CCNc1nc(-c2ccccc2)cn2c(-c3ccc(C(=O)NC4CC4)cc3)cnc12 [Example 3-2, N-cyclopropyl-4-[6-phenyl-8-(prop-2-yn-1-ylamino)imidazo[1,2-a]pyrazin-3-yl]benzamide]
23 | 8.62 | CC(C)CCNc1nc(-c2ccncc2)cn2c(-c3ccc(C(=O)NC4CC4)cc3)cnc12 [Example 3-6, N-cyclopropyl-4-{8-[(3-methylbutyl)amino]-6-(pyridin-4-yl)imidazo [1,2-a]pyrazin-3-yl} benzamide]
24 | 7.95 | Cc1cc(-c2cnc3c(NCC4CCC(C)(O)CC4)nc(C4=CCOCC4)cn23)ccc1C(=O)NC1CC1 (stereo not shown) [Example 6-8, N-cyclopropyl-4-[6-(3,6-dihydro-2H-pyran-4-yl)-8-{[(4-hydroxy-4-methylcyclohexyl)methyl]amino}imidazo[1,2-a]pyrazin-3-yl]-2-methylbenzamide]
25 | 7.93 | CC(C)CNc1nc(C(=O)NCCN2CCCCC2)cn2c(-c3ccc(C(=O)NC4CC4)cc3)cnc12 [Example 8-2, 3-[4-(cyclopropylcarbamoyl)phenyl]-8-[(2-methylpropyl)amino]-N-[2-(piperidin-1-yl)ethyl] imidazo[1,2-a]pyrazine 6-carboxamide]
